Measured values reported in ChEMBL document CHEMBL1145424, “Novel boron-containing, nonclassical antifolates: synthesis and preliminary biological and structural evaluation” (J Med Chem, 2007).
Converted amounts (≈) assume the structure as drawn.

Key:
NCI-H23 = assay: cells; details: Homo sapiens, NCI-H23, 72 h
Description: Growth inhibition of human NCI-H23 cells after 72 hrs

SNB-7 = assay: Growth inhibition of human SNB7 cells after 72 hrs; format: functional, cell-based; details: SNB-7, 72 h
PC-3 = assay: Growth inhibition of human PC3 cells after 72 hrs; format: functional, cell-based; details: PC-3, 72 h
CAKI-1 = assay: Growth inhibition of human CAKI1 cells after 72 hrs; format: functional, cell-based; details: CAKI-1, 72 h
DLD-1 = assay: Growth inhibition of human DLD1 cells after 72 hrs; format: functional, cell-based; details: DLD-1, 72 h
ZR-75-1 = assay: Growth inhibition of human ZR-75-1 cells after 72 hrs; format: functional, cell-based; details: ZR-75-1, 72 h
LOX IMVI = assay: cells; details: Homo sapiens, 72 h
Description: Growth inhibition of human LOX IMVI cells after 72 hrs

- IC50 (NCI-H23): 0.29 µg/mL (≈ 0.638 µM)
- IC50 (PC-3): 0.027 µg/mL (≈ 0.0594 µM)
- IC50 (DLD-1): > 60 µg/mL
- IC50 (LOX IMVI): 0.057 µg/mL (≈ 0.125 µM)
Structure (SMILES): CN(Cc1cnc2nc(N)nc(N)c2n1)c1ccc(C(=O)N[C@@H](CCC(=O)O)C(=O)O)cc1 [METHOTREXATE]
- IC50 (SNB-7): > 60 µg/mL
- IC50 (CAKI-1): > 60 µg/mL
- IC50 (ZR-75-1): > 60 µg/mL
